Measured values reported in patent publication US7326384B2, “Method and apparatus for detecting physicochemical changes emitted by biological sample” (Matsushita Electric Industrial Co., Ltd., priority 2001, dated 2008).

Legend:
[1] = tested on: ion channel of a Lymnaea stagnail neuron; assay: Extracellular recording of neuron before and after applying Carbachol, normal distribution of standard deviations (apparatus of FIG. 9); assay type: cell-based; details: after applying 50 μM Carbachol; 10 seconds data; FIG. 13
Source text: FIG. 9 is a conceptual diagram showing a configuration of an apparatus comprising the above-described device for detecting physicochemical changes emitted by a biological sample, which is configured to measure and extract the ion channel activity of the biological sample. The apparatus is the same as the apparatus of FIG. 8, except that the normal distribution approximation section 103, the average/half-width calculation section 106 and the activity categorization section 109 are employed in place of the average calculation section 105 and the activity calculation section 108. Communications between each section are indicated by a dashed line or a solid line in FIG. 9. […]
Before and after 50 μM-concentration Carbachol is applied to a Lymnaea stagnail neuron, signals were obtained from the measurement section (signal source) 101, and the standard deviation of the signals was calculated in a manner similar to that of Example 1. […]

[2] = tested on: ion channel of a Lymnaea stagnail neuron; assay: Extracellular recording of neuron electrical signal at increasing Carbachol concentrations (apparatus of FIG. 8); assay type: cell-based; details: Carbachol 0, 0.1, 0.3, 1, 3, 10, 30 and 100 μM; 10 seconds time-series data; FIG. 12
Source text: FIG. 8 is a conceptual diagram showing a configuration of an apparatus comprising the above-described device for detecting physicochemical changes emitted by a biological sample, which is configured to measure and extract the ion channel activity of the biological sample. The apparatus comprises a measurement section (signal source) 101 comprising a device for detecting physicochemical changes emitted by the biological sample and measuring an action potential generated by a neuron, a unit standard deviation calculation section 102 for sampling a signal from the measurement section 101 and calculating the standard deviation of the signal, an average calculation section 105 for calculating the average of the obtained standard deviation, an activity calculation section 108 for calculating the ion channel activity of a cell from the average of the standard deviation output by the average calculation section 105, and a data displaying section 110 for displaying the calculated activity. Communications between each section are indicated by a dashed line or a solid line in FIG. 8. Note that the unit standard deviation calculation section 102, and the average calculation section 105, and the activity calculation section 108 may be representatively software programs which are recorded in a hard disk in a computer. The data displaying section 110 may be a CRT. […]

C[N+](C)(C)CCOC(N)=O [Carbachol]
average of the normal distribution of standard deviation values every 5 miliseconds [1]: 0.703
ion channel activation (average of the standard deviation every 100 miliseconds) [2]: activated depending on the Carbachol concentration
